Data on 1 compound can be found in patent US20220096561A1, “INHIBITING OR ALLEVIATING AGENT FOR INFLAMMATION IN THE BRAIN” (NIPPON ZOKI PHARMACEUTICAL CO., LTD., priority 2019, published 2022).

What all share (assay type): cell-based, murine
Test [1] relates to BV-2 cell. In words: p-p65 and p-IκB-α expression in LPS-stimulated cells. The settings on record: LPS + NTP + ANA-12, FIG. 6F-H. The method, then: (§1) Immortal BV-2 murine microglial cells, a gift from Dr. Ying Chen of Sun Yat-sen Memorial Hospital, Sun Yat-sen University were cultured as described (refer Non-Patent Document 2). BV-2 cultures were treated with 0.1 NU/mL NTP, then given lipopolysaccharides (1000 ng/mL, LotL2880, O55:B5, Sigma-Aldrich, St. Louis, Mo., USA) 12 h later.
Western blotting and semi-quantitative analyses were performed following previously described procedures (refer Liao W, Jiang M J, Li M, Jin C L, Xiao S H, Fan S N, Fang W L, Zheng Y Q and Liu J. Magnesium Elevation Promotes Neuronal Differentiation While Suppressing Glial Differentiation of Primary Cultured Adult Mouse Neural Progenitor Cells through ERK/CREB Activation. Frontiers in Neuroscience 2017; 11:). In brief, proteins in cerebral cortex and hippocampus were extracted with lysis buffer for 30 min, followed by centrifugation at 14,000 rpm for 15 min at […] to obtain the supernatant for western blot analysis. Primary antibodies and dilution rates used were listed as follow: NF-κB (p65), 1:1000; p-IκBα, 1:500 and β-actin, 1:1000. Primary antibodies against NF-κB (p65), p-IκBα and β-actin were purchased from Cell Signaling Technology Inc (MA, USA). […] The quantification of protein expression was analyzed by Image J (National Institutes of Health, Md., USA).

Test [2] deals with BV-2 cell. Nature of the test: BDNF level in LPS-treated BV-2 cells. Conditions: LPS + NTP + ANA12, FIG. 6E. Here is the method: as §1
Test [3] has as its system BV-2 cell. Nature of the test: IL-1β, IL-6, TNF-α expression in LPS-treated BV-2 cells. The settings on record: LPS + NTP, pre-treated with 10 uM ANA12 1 h before NTP, FIG. 6A-C. Here is the method:
as §1

Each structure is given as a SMILES string.

Turning to `O=C(Nc1ccccc1C(=O)NC1CCCCNC1=O)c1cc2ccccc2s1` (stereo not drawn) [ANA12], in the test on BV-2 cell [1], the “activation of p-IκB-α” value is recorded as “abolished by ANA-12” and the “activation of p-P65” value is given as “abolished by ANA-12”. The “effect of NTP on BDNF” value in the test with BV-2 cell [2] was “abolished by ANA12”. In addition, in the test on BV-2 cell [3], the “expression of IL-1β” value is on record as “increased after ANA12 administration”, the “expression of IL-6” value is given as “increased after ANA12 administration” and the “expression of TNF-α” value is listed as “increased after ANA12 administration”.
